# Laboratory results taken from ChEMBL document CHEMBL1201862, “PubChem BioAssay data set” (2004).
#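 A five-concentration, 48-hour dose response in 96-well plates underlies each endpoint, interpolated linearly between surrounding concentrations. Here, GI50 denotes the concentration required for 50% inhibition of growth.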 The source made the active and inactive calls. Rule as the data show it: active = GI50 up to about 1.1 µM and inactive = higher.
# Columns and labels:
# Test in all cases: inhibition of tumour cell growth, NCI panel, 48 h
# A549 = test system: A549
# ACHN = test system: ACHN
# CCRF-CEM = test system: CCRF-CEM
# HCT-116 = test system: HCT-116
# HL-60 = test system: HL-60
# IGROV-1 = test system: IGROV-1
# MDA-N = test system: MDA-N
# NCI-H226 = test system: NCI-H226
# NCI/ADR-RES = test system: NCI/ADR-RES
# OVCAR-5 = test system: OVCAR-5
# SF-268 = test system: SF-268
# SK-MEL-28 = test system: SK-MEL-28
# SK-OV-3 = test system: SK-OV-3
# SN12C = test system: SN12C
# SR = test system: SR
# TK-10 = test system: TK-10
# UACC-257 = test system: UACC-257
# UO-31 = test system: UO-31
# KM-20L2 = test system: KM-20L2
# DLD-1 = test system: DLD-1
Compound,GI50 (A549),GI50 (ACHN),GI50 (CCRF-CEM),GI50 (HCT-116),GI50 (HL-60),GI50 (IGROV-1),GI50 (MDA-N),GI50 (NCI-H226),GI50 (NCI/ADR-RES),GI50 (OVCAR-5),GI50 (SF-268),GI50 (SK-MEL-28),GI50 (SK-OV-3),GI50 (SN12C),GI50 (SR),GI50 (TK-10),GI50 (UACC-257),GI50 (UO-31),GI50 (KM-20L2),GI50 (DLD-1)
CC(Nc1ncc2c(n1)-c1ccccc1OC2)C(=O)O (stereo unspecified),> 100 µM (inactive),> 100 µM (inactive),> 100 µM (inactive),> 100 µM (inactive),6.89 µM (inactive),25.2 µM (inactive),> 100 µM (inactive),61.7 µM (inactive),> 100 µM (inactive),> 100 µM (inactive),> 100 µM (inactive),> 100 µM (inactive),> 100 µM (inactive),59.7 µM (inactive),48.5 µM (inactive),> 100 µM (inactive),60.3 µM (inactive),41.2 µM (inactive),,
COC(=O)C(C(=O)C(=O)Nc1ccc(C(F)(F)F)cc1[N+](=O)[O-])c1csc(-n2nc(-c3ccccc3)cc2-c2ccccc2)n1 (stereo unspecified),> 100 µM (inactive),,> 100 µM (inactive),> 100 µM (inactive),> 100 µM (inactive),> 100 µM (inactive),,> 100 µM (inactive),,> 100 µM (inactive),,,> 100 µM (inactive),> 100 µM (inactive),> 100 µM (inactive),> 100 µM (inactive),> 100 µM (inactive),> 100 µM (inactive),> 100 µM (inactive),
Cc1cc2c(C(C)C)c(O)c(O)c(/C=N\CCO)c2c(O)c1-c1c(C)cc2c(C(C)C)c(O)c(O)c(/C=N/CCO)c2c1O,1.21 µM (inactive),3.37 µM (inactive),0.653 µM (active),1.67 µM (inactive),2.43 µM (inactive),1.91 µM (inactive),,2.51 µM (inactive),,3.66 µM (inactive),1.39 µM (inactive),1.67 µM (inactive),3.37 µM (inactive),2.84 µM (inactive),1.1 µM (active),6.4 µM (inactive),2.32 µM (inactive),3.44 µM (inactive),,3.33 µM (inactive)
N#CCC1(c2ccc(Cl)cc2)NC(=O)c2ccccc21 (stereo unspecified),> 100 µM (inactive),> 100 µM (inactive),> 100 µM (inactive),> 100 µM (inactive),> 100 µM (inactive),> 100 µM (inactive),> 100 µM (inactive),> 100 µM (inactive),> 100 µM (inactive),> 100 µM (inactive),> 100 µM (inactive),> 100 µM (inactive),> 100 µM (inactive),> 100 µM (inactive),> 100 µM (inactive),96.2 µM (inactive),> 100 µM (inactive),> 100 µM (inactive),,
COc1ccc2c(c1)c1c3c(ccc4ncn2c43)N(CCO)CCN=1,0.218 µM (active),0.146 µM (active),0.0476 µM (active),0.0512 µM (active),0.165 µM (active),2.02 µM (inactive),0.214 µM (active),0.182 µM (active),0.334 µM (active),0.245 µM (active),0.221 µM (active),0.327 µM (active),0.305 µM (active),0.158 µM (active),0.0198 µM (active),0.389 µM (active),0.391 µM (active),0.104 µM (active),,
C[C@@H]1OC(=O)N2CCCC(=C3SCCCS3)C12 (stereo partly specified),78.5 µM (inactive),93.5 µM (inactive),46.6 µM (inactive),44.4 µM (inactive),,90.8 µM (inactive),,44.9 µM (inactive),,> 100 µM (inactive),61.9 µM (inactive),> 100 µM (inactive),> 100 µM (inactive),> 100 µM (inactive),,> 100 µM (inactive),37.1 µM (inactive),19.4 µM (inactive),93.8 µM (inactive),
Cc1nc(N)sc1/N=N/c1ccccc1Br,> 53.7 µM (inactive),43.1 µM (inactive),3.75 µM (inactive),33.2 µM (inactive),> 42.5 µM (inactive),24.1 µM (inactive),27.9 µM (inactive),39.7 µM (inactive),39.4 µM (inactive),41.6 µM (inactive),17.2 µM (inactive),33.1 µM (inactive),> 57.7 µM (inactive),34.8 µM (inactive),35.2 µM (inactive),37.9 µM (inactive),32.9 µM (inactive),31 µM (inactive),,
COC(=O)[C@]1(c2cc3ccccc3[nH]2)CC2CNC1C1OC(C)(C)OC21 (stereo partly specified),> 100 µM (inactive),> 100 µM (inactive),> 100 µM (inactive),> 100 µM (inactive),> 100 µM (inactive),> 100 µM (inactive),75.9 µM (inactive),> 100 µM (inactive),> 100 µM (inactive),> 100 µM (inactive),> 100 µM (inactive),> 100 µM (inactive),> 100 µM (inactive),> 100 µM (inactive),47.9 µM (inactive),> 100 µM (inactive),> 100 µM (inactive),> 100 µM (inactive),,
